In data set [1] the target is T1, HO-1 (Rattus norvegicus, UniProt P06762).
T1 construct: selected in order to use the most native (i.e., closest to in vivo) forms of HO-1 and HO-2; from tissue; host or cells: spleen microsomal fraction of male Sprague-Dawley rats
T1 sequence (P06762 1-289): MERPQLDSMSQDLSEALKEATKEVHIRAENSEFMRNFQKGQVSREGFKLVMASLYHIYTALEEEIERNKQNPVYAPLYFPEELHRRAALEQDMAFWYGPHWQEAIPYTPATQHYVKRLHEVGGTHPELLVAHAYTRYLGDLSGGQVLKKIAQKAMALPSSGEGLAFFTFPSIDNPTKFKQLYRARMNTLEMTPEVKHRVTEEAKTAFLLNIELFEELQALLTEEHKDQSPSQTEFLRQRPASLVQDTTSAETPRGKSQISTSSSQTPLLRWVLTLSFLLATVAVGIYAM
As to conditions: reference compounds; data taken from ref 32; read-out: IC50 (μM) ± SD HO-1; cited from earlier work.

The target in data set [2] is T2, HO-2 (Rattus norvegicus, UniProt P23711).
T2 construct: selected in order to use the most native (i.e., closest to in vivo) forms of HO-1 and HO-2; from tissue; host or cells: brain microsomal fraction of male Sprague-Dawley rats
T2 sequence (P23711 1-315): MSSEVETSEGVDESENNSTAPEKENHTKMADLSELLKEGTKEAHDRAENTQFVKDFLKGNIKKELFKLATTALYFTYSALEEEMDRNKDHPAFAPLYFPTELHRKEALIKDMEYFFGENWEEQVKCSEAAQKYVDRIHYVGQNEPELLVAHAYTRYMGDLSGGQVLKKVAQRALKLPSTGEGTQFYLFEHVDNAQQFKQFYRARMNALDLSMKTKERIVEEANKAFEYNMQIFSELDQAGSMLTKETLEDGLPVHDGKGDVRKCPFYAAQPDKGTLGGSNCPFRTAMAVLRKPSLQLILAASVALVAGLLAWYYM
Conditions: reference compounds; data taken from ref 32; read-out: IC50 (μM) ± SD HO-2; cited from earlier work.

The target in data set [3] is T1, HO-1. Description: HO-1 inhibition, bilirubin formation in rat spleen microsomal fraction. It counts as biochemical. Here is the method:
(§1) HO-1 and HO-2 were obtained from the microsomal fractions of rat spleen and rat brain, respectively. Enzymatic activity of both isoforms was determined by measuring the bilirubin formation using the difference in absorbance at 464–530 nm, as described in the experimental section. Compounds A–C, and tin protoporphyrin (SnPP) were used as reference substances. Inhibition of enzymes activity is expressed as IC50 (μM), and results are resumed in Table 1.
The dominance of HO-1 protein in the rat spleen and of HO-2 in the rat brain has been well documented; thus, the microsomal fraction, prepared by differential centrifugation, from rat spleen and brain have been used to obtain HO-1 and HO-2. These particular microsomal preparations were selected in order to use the most native (i.e., closest to in vivo) forms of HO-1 and HO-2. Spleen and brain microsomal fractions, from Sprague–Dawley rats, were prepared following a published procedure. All experiments complied with current Italian law and met the guidelines of the Institutional Animal Care and Use Committee of MINISTRY OF HEALTH (Directorate General for Animal Health and Veterinary Medicines, Italy). Male Sprague–Dawley albino rats (150 g body weight and age 45 d) were used. Rats had free access to water, and they were maintained at room temperature with a natural photoperiod (12 h:12 h light–dark cycle). For measuring HO-1 and HO-2 activities, each rat was sacrificed and their spleen and brain were excised and weighed. A homogenate (15%, w/v) of spleens and brains pooled from four rats was prepared in ice-cold HO-homogenizing buffer (50 mM Tris buffer, pH 7.4, containing 0.25 M sucrose) using a Potter–Elvehjem homogenizing system with a Teflon pestle. The microsomal fraction of rat spleen and brain homogenate was obtained by centrifugation at 10,000× g for 20 min at 4 °C, followed by centrifugation of the supernatant at 100,000× g for 60 min at 4 °C. The 100,000× g pellet (microsomes) was resuspended in 100 mM potassium phosphate buffer, pH 7.8, containing 2 mM MgCl2 with a Potter–Elvehjem homogenizing system. Equal aliquots of the rat spleen and brain microsomal fractions were prepared, placed into microcentrifuge tubes, and stored at −80 °C for up to 2 months. Finally, the Lowry method was used to determine the protein concentration of the microsomal fraction.
Liver cytosol has been used as a source of biliverdin reductase. Rat liver was perfused through the hepatic portal vein with cold 0.9% NaCl, then it was cut and flushed with 2 × 20 mL of ice-cold PBS to remove all of the blood. Liver tissue was homogenized in three volumes of a solution containing 1.15% KCl w/v and Tris buffer 20 mM, pH 7.8 on ice. Homogenates were centrifuged at 10,000× g for 20 min at 4 °C. The supernatant was decanted and centrifuged at 100,000× g for 1 h at 4 °C to sediment the microsomes. The 100,000× g supernatant was saved and then stored in small amounts at −80 °C after its protein concentration was measured.
The measurement of bilirubin formation, using the difference in absorbance at 464–530 nm, was used to determine the HO-1 and HO-2 activities, as previously described by Ryter et al.. Reaction mixtures (500 μL) consisted of 20 mM Tris–HCl, pH 7.4, (1 mg/mL) microsomal extract, 0.5–2 mg/mL biliverdin reductase, 1 mM NADPH, 2 mM glucose 6-phosphate (G6P), 1 U G6P dehydrogenase, 25 μM hemin, and 10 μL of DMSO (or the same volume of DMSO solution of test or reference compounds to a final concentration of 100, 10, and 1 μM). Incubations were carried out for 60 min at 37 °C in a circulating water bath in the dark. One volume of chloroform was added to stop the reactions. Then, the chloroform phase was recovered, and the amount of bilirubin, which was formed has been measured with a double-beam spectrophotometer as OD464–530 nm (extinction coefficient, 40 mM/cm^−1 for bilirubin). […]

Data set [4] deals with T2, HO-2. Description: HO-2 inhibition, bilirubin formation in rat brain microsomal fraction. Type of data set: biochemical. Conditions: mean ± SD of three determinations. Here is the method:
as §1
The dominance of HO-1 protein in the rat spleen and of HO-2 in the rat brain has been well documented; thus, the microsomal fraction, prepared by differential centrifugation, from rat spleen and brain have been used to obtain HO-1 and HO-2. These particular microsomal preparations were selected in order to use the most native (i.e., closest to in vivo) forms of HO-1 and HO-2. Spleen and brain microsomal fractions, from Sprague–Dawley rats, were prepared following a published procedure. All experiments complied with current Italian law and met the guidelines of the Institutional Animal Care and Use Committee of MINISTRY OF HEALTH (Directorate General for Animal Health and Veterinary Medicines, Italy). Male Sprague–Dawley albino rats (150 g body weight and age 45 d) were used. Rats had free access to water, and they were maintained at room temperature with a natural photoperiod (12 h:12 h light–dark cycle). For measuring HO-1 and HO-2 activities, each rat was sacrificed and their spleen and brain were excised and weighed. […]
Liver cytosol has been used as a source of biliverdin reductase. […] The 100,000× g supernatant was saved and then stored in small amounts at −80 °C after its protein concentration was measured.
The measurement of bilirubin formation, using the difference in absorbance at 464–530 nm, was used to determine the HO-1 and HO-2 activities, as previously described by Ryter et al.. […] Then, the chloroform phase was recovered, and the amount of bilirubin, which was formed has been measured with a double-beam spectrophotometer as OD464–530 nm (extinction coefficient, 40 mM/cm^−1 for bilirubin). […]

In data set [5] the test system is MCF-7 cells. Nature of the data set: Sulforhodamine B (SRB) cytotoxicity assay, MCF-7. As to conditions: Homo sapiens, MCF7, hormone-sensitive breast cancer cells, 10–100 μM, 48 h, mean ± SEM (n = 3), read-out: IC50 cytotoxicity against MCF-7. Type of data set: cell-based. Here is the method: (§2) Both cell lines were treated with 10–100 μM of compound 5a for 48 h. Cell survival at different concentrations was calculated compared to untreated controls. At the end of treatment, cell number was determined using the sulforhodamine B (SRB) colorimetric assay based on the measurement of cellular protein content.
(§3) MCF-7 and MDA-MB-231 cells were maintained in complete growth media (DMEM/Ham’s F12 supplemented with 10% fetal bovine serum, 2 mM L-glutamine, 100 units/mL penicillin, 100 units/mL of streptomycin, and 2.2 g/L of NaHCO3) at 37 °C in a humidified atmosphere of 5% CO2. For all procedures, cells were harvested using TrypLE Express (Life Technologies, Auckland, New Zealand).
(§4) Cells were seeded into 96-well plates and incubated for 24 h to test the cytotoxic effect of the HO inhibitor. After 24 h incubation, different concentrations of the HO inhibitor were administered for 48 h. Following the incubation, cells were fixed using 10% trichloro-acetic acid (TCA). The cytotoxicity was determined using the sulforhodamine B assay was used, as previously described, to determine the cytotoxicity of the HO-1 inhibitor. IC50 (the concentration required to decrease the cell number by 50%) was determined by non-linear regression using Graphpad prism 6 software. Treatments were performed in triplicate, and data represent the mean of three independent experiments.

Data set [6] deals with MDA-MB-231 cells. Description: Sulforhodamine B (SRB) cytotoxicity assay, MDA-MB-231. It counts as cell-based. As to conditions: hormone-resistant breast cancer cells, 10–100 μM, 48 h. How it is done:
as §2, §3, §4
Background: Sulforhodamine B stains cellular protein and so reports cell mass.

The mark [7] stands for this setting: experimental values repeated in the docking table, read-out: IC50 exp. (μM) HO-1.
The mark [8] stands for this setting: rat spleen microsomal fraction, mean ± SD of three determinations, read-out: IC50 (μM) ± SD HO-1.

The structures appear in SMILES notation. Values joined by “and” are separate entries in the source; they are usually repeats but may differ in a detail not shown here. Identical values can stand only once. Like-named read-outs stand apart in the source and are kept apart here. Bounds are passed on as bounds.

By IC50 is commonly meant the concentration needed to halve the response being measured. For `OC(Cn1ccnc1)c1cccc(-c2ccccc2)c1` (centres unmarked) [B], the IC50 in data set [1] was 0.95 µM; in data set [2], over 100 µM.
`OC(Cn1ccnc1)c1ccc(OCc2ccc(Br)cc2)cc1` (centres unmarked) [C]: the half-inhibitory concentration (IC50) in data set [2] was over 100 µM.
For the compound `Brc1cccc(CCn2ccnc2)c1` [Compound 2a, 1-(3-bromophenethyl)-1H-imidazole], the IC50 in data set [3] (setting [7]) stood at 100 µM; in data set [3] (setting [8]), 100 ± 5.6 µM.
As a reminder, the melting point is the temperature of the solid-liquid transition. For the compound `Brc1ccc(COc2ccc(CCn3ccnc3)cc2)cc1` [Compound 2b, 1-(4-((4-bromobenzyl)oxy)phenethyl)-1H-imidazole], the melting point is 147.5 to 149.7 °C. Further, the IC50 in data set [3] (setting [7]) was determined as 62.9 ± 3.2 µM. In data set [3] (setting [8]), the IC50 came out at 62.9 ± 3.2 µM.
As for `c1ccc(-c2cccc(CCn3ccnc3)c2)cc1` [Compound 2c, 1-(2-((1,1’-biphenyl)-3-yl)ethyl)-1H-imidazole], the IC50 in data set [3] (setting [7]) and in data set [3] (setting [8]) was 46.8 ± 1.8 µM throughout.
`O=C(Cn1ccnc1)c1cccc(Br)c1` [Compound 4g]: in data set [3] (setting [8]), the IC50 was 38.2 ± 1.8 µM.
Regarding `O=C(Cn1ccnc1)c1cccc(-c2ccccc2)c1` [Compound 4h], the IC50 in data set [3] (setting [8]) is 19.9 ± 2.5 µM.
Same read-out and setting: the figure for `O=C(Cn1ccnc1)c1ccc(OCc2ccc(Br)cc2)cc1` [Compound 4i] is 55.46 ± 0.05 µM.
The compound `OC(Cn1ccnc1)c1cccc(OCc2ccc(Br)cc2)c1` (centres unmarked) [Compound 5a, 1-[3-[(4-bromobenzyl)oxy]phenyl]-2-(1H-imidazol-1-yl)ethanol] gave a melting point of 123 to 126 °C. For the same compound, the IC50 in data set [3] (setting [7]) turned out to be 0.9 ± 0.02 µM. In addition, in data set [3] (setting [8]), the half-inhibitory concentration (IC50) turned out to be 0.9 ± 0.02 µM. The IC50 in data set [4] is 54 µM and 53.6 µM. Further, the IC50 in data set [5] turned out to be 47.4 ± 6.8 µM. Further, in data set [6], the “cytotoxicity against MDA-MB-231” value is reported as “no cytotoxicity”.
`OC(Cn1ccnc1)c1ccccc1OCc1ccc(Br)cc1` (centres unmarked) [Compound 5b, 1-[2-[(4-bromobenzyl)oxy]phenyl]-2-(1H-imidazol-1-yl)ethanol] came in with a melting point of 121.5 to 130 °C. In addition, the half-maximal inhibitory concentration (IC50) in data set [3] (setting [7]) is over 100 µM. Also, the IC50 in data set [3] (setting [8]) is at least 100 µM.
The corresponding values for `OC(Cn1ccnc1)c1ccc(OCc2cccc(Br)c2)cc1` (centres unmarked) [Compound 5c, 1-[4-[(3-bromobenzyl)oxy]phenyl]-2-(1H-imidazol-1-yl)ethanol] are 120.1 to 123 °C, 41 ± 1.5 µM and 41 ± 1.5 µM.
On to `OC(Cn1ccnc1)c1ccc(OCc2ccccc2Br)cc1` (centres unmarked) [Compound 5d, 1-[4-[(2-bromobenzyl)oxy]phenyl]-2-(1H-imidazol-1-yl)ethanol], for which the melting point was in the range of 120 to 126 °C. Also, the IC50 in data set [3] (setting [7]) is 9 ± 2.2 µM. The IC50 in data set [3] (setting [8]) was found to be 9 ± 2.2 µM. For the same compound, inhibition in data set [4] was half-maximal at 15.8 ± 1.6 µM (IC50).
Turning to `OC(Cn1ccnc1)c1cccc(OCc2cccc(Br)c2)c1` (centres unmarked) [Compound 5e, 1-[3-[(3-bromobenzyl)oxy]phenyl]-2-(1H-imidazol-1-yl)ethanol], the melting point was in the range of 93.5 to 99.4 °C. In addition, the IC50 in data set [3] (setting [7]) was determined as 46 ± 1.9 µM. Further, the IC50 in data set [3] (setting [8]) worked out at 46 ± 1.9 µM.
In turn, `OC(Cn1ccnc1)c1cccc(OCc2ccccc2Br)c1` (centres unmarked) [Compound 5f, 1-[3-[(2-bromobenzyl)oxy]phenyl]-2-(1H-imidazol-1-yl)ethanol] came in with a melting point of 132 to 140 °C. Besides, the IC50 in data set [3] (setting [7]) amounted to 44 ± 1.8 µM. The IC50 in data set [3] (setting [8]) is 44 ± 1.8 µM.
Consider `Clc1ccc(COC(Cn2ccnc2)c2cccc(Br)c2)cc1` (centres unmarked) [Compound 6a, 1-(2-(3-bromophenyl)-2-((4-chlorobenzyl)oxy)ethyl)-1H-imidazole], for which the IC50 in data set [3] (setting [7]) and in data set [3] (setting [8]) was over 100 µM each time.
For the compound `Clc1ccc(Cl)c(COC(Cn2ccnc2)c2cccc(Br)c2)c1` (centres unmarked) [Compound 6b, 1-(2-(3-bromophenyl)-2-((2,5-dichlorobenzyl)oxy)ethyl)-1H-imidazole], the IC50 in data set [3] (setting [7]) and in data set [3] (setting [8]) was 66 ± 3.2 µM each time.
Regarding `C=Cc1c2[n-]c(c1C)/C=c1\[n-]/c(c(C)c1C=C)=C\c1[n-]c(c(CCC(=O)O)c1C)/C=c1\[n-]c(c(C)c1CCC(=O)O)=C2.[Sn+4]` [SnPP, tin protoporphyrin, reference compound], the IC50 in data set [3] (setting [8]) worked out at 0.58 ± 0.03 µM; in data set [4] it was 0.36 ± 0.01 µM.
